# Test system: MV-4-11 cells
# Experiment: Gene expression microarray analysis (Affymetrix PrimeView) and GSEA
# Format: cell-based, human
# Design: RFU PODN (11730768_x_at) / Fold change /veh PODN (11730768_x_at) / RFU LINC00158 (11744669_a_at) / Fold change /veh LINC00158 (11744669_a_at) / RFU DUSP10 (11751237_a_at) / Fold change /veh DUSP10 (11751237_a_at) / RFU ID3 (11757404_x_at) / Fold change /veh ID3 (11757404_x_at) / RFU PLEKHG5 (11737974_s_at) / Fold change /veh PLEKHG5 (11737974_s_at) / RFU LRRC4B (11730491_at) / Fold change /veh LRRC4B (11730491_at) / RFU GIMAP4 (11747438_a_at) / Fold change /veh GIMAP4 (11747438_a_at) / RFU KRT8 (11758183_x_at) / Fold change /veh KRT8 (11758183_x_at) / RFU CNN1 (11734310_a_at) / Fold change /veh CNN1 (11734310_a_at) / RFU VPS37D (11726825_at) / Fold change /veh VPS37D (11726825_at) / RFU C10orf10 (11716522_x_at) / Fold change /veh C10orf10 (11716522_x_at) / RFU KIR2DL2 /// KIR2DL4 /// KIR2DL5A /// KIR2DL5B /// KIR2DS1 /// KIR2DS2 /// KIR2DS3 /// KIR2DS4 /// KIR3DL3 /// KIR3DL3 /// KIR3DS1 (11738374_at) / Fold change /veh KIR2DL2 /// KIR2DL4 /// KIR2DL5A /// KIR2DL5B /// KIR2DS1 /// KIR2DS2 /// KIR2DS3 /// KIR2DS4 /// KIR3DL3 /// KIR3DL3 /// KIR3DS1 (11738374_at) / RFU C1QL1 (11718748_at) / Fold change /veh C1QL1 (11718748_at) / RFU TMPRSS4 (11747572_a_at) / Fold change /veh TMPRSS4 (11747572_a_at) / RFU HAMP (11756126_x_at) / Fold change /veh HAMP (11756126_x_at) / RFU RNFT2 (11725882_a_at) / Fold change /veh RNFT2 (11725882_a_at) / RFU NR4A2 (11747474_a_at) / Fold change /veh NR4A2 (11747474_a_at) / RFU ABCC12 (11746883_a_at) / Fold change /veh ABCC12 (11746883_a_at) / RFU TMEM136 (11760407_x_at) / Fold change /veh TMEM136 (11760407_x_at) / RFU CLDN22 /// WWC2 (11732394_at) / Fold change /veh CLDN22 /// WWC2 (11732394_at) / RFU HLA-DPB1 (11760878_x_at) / Fold change /veh HLA-DPB1 (11760878_x_at) / RFU SPINT1 (11716480_a_at) / Fold change /veh SPINT1 (11716480_a_at) / RFU GAP43 (11754022_s_at) / Fold change /veh GAP43 (11754022_s_at) / RFU A4GNT (11735810_at) / Fold change /veh A4GNT (11735810_at) / RFU PRB3 (11715151_x_at) / Fold change /veh PRB3 (11715151_x_at) / RFU TUBB4B (11761932_at) / Fold change /veh TUBB4B (11761932_at) / RFU CAPN14 (11732068_a_at) / Fold change /veh CAPN14 (11732068_a_at) / RFU TMCC2 (11721928_a_at) / Fold change /veh TMCC2 (11721928_a_at) / RFU IRGQ (11745062_a_at) / Fold change /veh IRGQ (11745062_a_at) / RFU FAM174B (11720279_a_at) / Fold change /veh FAM174B (11720279_a_at) / RFU TMPRSS4 (11748680_a_at) / Fold change /veh TMPRSS4 (11748680_a_at) / RFU FAM212B (11763350_a_at) / Fold change /veh FAM212B (11763350_a_at) / RFU PLEKHG5 (11743358_a_at) / Fold change /veh PLEKHG5 (11743358_a_at) / RFU ZSCAN30 (11745921_a_at) / Fold change /veh ZSCAN30 (11745921_a_at) / RFU CMKLR1 (11741424_a_at) / Fold change /veh CMKLR1 (11741424_a_at) / RFU LOC101060620 /// MAPK8IP1 (11723275_at) / Fold change /veh LOC101060620 /// MAPK8IP1 (11723275_at) / RFU SPTSSB (11747773_x_at) / Fold change /veh SPTSSB (11747773_x_at) / RFU PRSS12 (11739890_at) / Fold change /veh PRSS12 (11739890_at) / RFU BIN1 (11741810_x_at) / Fold change /veh BIN1 (11741810_x_at) / RFU WNT11 (11732464_a_at) / Fold change /veh WNT11 (11732464_a_at) / RFU C10orf10 (11716521_a_at) / Fold change /veh C10orf10 (11716521_a_at) / RFU C5orf56 (11738089_at) / Fold change /veh C5orf56 (11738089_at) / RFU CYB561 (11721691_x_at) / Fold change /veh CYB561 (11721691_x_at) / RFU ANKRD19P (11752326_a_at) / Fold change /veh ANKRD19P (11752326_a_at) / RFU OR2T12 /// OR2T33 /// OR2T8 (11738714_s_at) / Fold change /veh OR2T12 /// OR2T33 /// OR2T8 (11738714_s_at) / RFU VCAN (11748164_a_at) / Fold change /veh VCAN (11748164_a_at) / RFU JSRP1 (11732532_at) / Fold change /veh JSRP1 (11732532_at) / RFU KRTAP10-11 (11738290_x_at) / Fold change /veh KRTAP10-11 (11738290_x_at) / RFU MYO3A (11730013_a_at) / Fold change /veh MYO3A (11730013_a_at) / RFU EBF3 (11725865_a_at) / Fold change /veh EBF3 (11725865_a_at) / RFU CAMK2N1 (11719241_x_at) / Fold change /veh CAMK2N1 (11719241_x_at) / RFU C5orf56 (11738088_a_at) / Fold change /veh C5orf56 (11738088_a_at) / RFU OLFML3 (11715873_a_at) / Fold change /veh OLFML3 (11715873_a_at) / RFU LOC100653217 /// NTM (11731650_a_at) / Fold change /veh LOC100653217 /// NTM (11731650_a_at) / RFU MAPK11 (11762145_a_at) / Fold change /veh MAPK11 (11762145_a_at) / RFU FIZ1 (11724087_x_at) / Fold change /veh FIZ1 (11724087_x_at) / RFU OASL (11726364_x_at) / Fold change /veh OASL (11726364_x_at) / RFU SOX15 (11748057_x_at) / Fold change /veh SOX15 (11748057_x_at) / RFU CD79A (11719716_a_at) / Fold change /veh CD79A (11719716_a_at) / RFU HIST1H1D (11736915_at) / Fold change /veh HIST1H1D (11736915_at) / RFU CASKIN2 (11723855_a_at) / Fold change /veh CASKIN2 (11723855_a_at) / RFU LOC730098 (11760151_x_at) / Fold change /veh LOC730098 (11760151_x_at) / RFU OR4N2 (11742367_at) / Fold change /veh OR4N2 (11742367_at) / RFU PRRT2 (11749266_a_at) / Fold change /veh PRRT2 (11749266_a_at) / RFU SNX32 (11753110_a_at) / Fold change /veh SNX32 (11753110_a_at) / RFU CDHR5 (11726645_a_at) / Fold change /veh CDHR5 (11726645_a_at) / RFU RCAN1 (11760418_a_at) / Fold change /veh RCAN1 (11760418_a_at) / RFU FAM167A (11723789_a_at) / Fold change /veh FAM167A (11723789_a_at) / RFU FAM26E (11764081_at) / Fold change /veh FAM26E (11764081_at) / RFU ISYNA1 (11749810_s_at) / Fold change /veh ISYNA1 (11749810_s_at) / RFU ACY1 (11761880_at) / Fold change /veh ACY1 (11761880_at) / RFU 11764098_at / Fold change /veh 11764098_at / RFU SAMD14 (11745864_x_at) / Fold change /veh SAMD14 (11745864_x_at) / RFU NPB (11741838_a_at) / Fold change /veh NPB (11741838_a_at) / RFU TMPRSS6 (11731388_a_at) / Fold change /veh TMPRSS6 (11731388_a_at) / RFU KRTAP10-2 (11738614_at) / Fold change /veh KRTAP10-2 (11738614_at) / RFU ARHGAP8 /// PRR5-ARHGAP8 (11727945_x_at) / Fold change /veh ARHGAP8 /// PRR5-ARHGAP8 (11727945_x_at) / RFU KRTAP5-7 /// NADSYN1 (11734609_at) / Fold change /veh KRTAP5-7 /// NADSYN1 (11734609_at) / RFU RASL12 (11751679_a_at) / Fold change /veh RASL12 (11751679_a_at) / RFU CDKN2B (11736163_a_at) / Fold change /veh CDKN2B (11736163_a_at) / RFU PRF1 (11729649_at) / Fold change /veh PRF1 (11729649_at) / RFU, ZNF638 /// ZNF638-IT1 / Fold change vs veh, ZNF638 /// ZNF638-IT1 / RFU, PANK3 / Fold change vs veh, PANK3 / RFU, SH3YL1 / Fold change vs veh, SH3YL1 / RFU, ZEB2 / Fold change vs veh, ZEB2 / RFU, NRIP1 / Fold change vs veh, NRIP1 / RFU, PTTG1IP / Fold change vs veh, PTTG1IP / RFU, CAPN2 / Fold change vs veh, CAPN2 / RFU, MED14 / Fold change vs veh, MED14 / RFU, SNORA58 / Fold change vs veh, SNORA58 / RFU, C1orf63 / Fold change vs veh, C1orf63 / RFU, LRRFIP1 / Fold change vs veh, LRRFIP1 / RFU, NDUFAF7 / Fold change vs veh, NDUFAF7 / RFU, SLC12A2 / Fold change vs veh, SLC12A2 / RFU, IBTK / Fold change vs veh, IBTK / RFU, ESF1 / Fold change vs veh, ESF1 / Fold change vs veh, TMEM50B / RFU, TAOK1 / Fold change vs veh, TAOK1 / RFU, ACBD3 / Fold change vs veh, ACBD3 / RFU, TMA16 / Fold change vs veh, TMA16 / RFU, RWDD3 / Fold change vs veh, RWDD3 / RFU, BCAT1 / Fold change vs veh, BCAT1 / RFU, EDEM3 / Fold change vs veh, EDEM3 / RFU, TMEM33 / Fold change vs veh, TMEM33 / RFU, WDR75 / Fold change vs veh, WDR75 / RFU, AHCTF1 / Fold change vs veh, AHCTF1 / RFU, TFRC / Fold change vs veh, TFRC / RFU, ZDHHC17 / Fold change vs veh, ZDHHC17 / RFU, NOM1 / Fold change vs veh, NOM1 / RFU, ARL8B / Fold change vs veh, ARL8B / RFU, ZBTB11 / Fold change vs veh, ZBTB11 / RFU, TAMM41 / Fold change vs veh, TAMM41 / RFU, KIAA1704 /// LOC100996395 / Fold change vs veh, KIAA1704 /// LOC100996395 / RFU, ING1 / Fold change vs veh, ING1 / RFU, TRMT61B / Fold change vs veh, TRMT61B / RFU, FUBP3 / Fold change vs veh, FUBP3 / RFU, TP53 / Fold change vs veh, TP53 / RFU, TNKS2 / Fold change vs veh, TNKS2 / RFU, ZFP14 / Fold change vs veh, ZFP14 / RFU, ACTR2 / Fold change vs veh, ACTR2 / RFU, PPP3R1 / Fold change vs veh, PPP3R1 / RFU, PIK3R1 / Fold change vs veh, PIK3R1 / RFU, HNRNPA1 / Fold change vs veh, HNRNPA1 / RFU, RNF170 / Fold change vs veh, RNF170 / RFU, ZNF28 / Fold change vs veh, ZNF28 / RFU, RNGTT / Fold change vs veh, RNGTT / RFU, OGT / Fold change vs veh, OGT / RFU, BRD1 / Fold change vs veh, BRD1 / RFU, MARS / Fold change vs veh, MARS / RFU, ZNF655 / Fold change vs veh, ZNF655 / RFU, FAHD1 / Fold change vs veh, FAHD1 / RFU, BDP1 / Fold change vs veh, BDP1 / RFU, LRRCC1 / Fold change vs veh, LRRCC1 / RFU, ARID1A / Fold change vs veh, ARID1A / RFU, ZNF146 / Fold change vs veh, ZNF146 / RFU, ZNF330 / Fold change vs veh, ZNF330 / RFU, GPN3 / Fold change vs veh, GPN3 / RFU, C9orf123 / Fold change vs veh, C9orf123 / RFU, N4BP2L2 / Fold change vs veh, N4BP2L2 / RFU, ARFIP1 / Fold change vs veh, ARFIP1 / RFU, FAM179B / Fold change vs veh, FAM179B / RFU, BCL10 / Fold change vs veh, BCL10 / RFU, UHRF1BP1L / Fold change vs veh, UHRF1BP1L / RFU, BET1 / Fold change vs veh, BET1 / RFU, CNOT2 / Fold change vs veh, CNOT2 / RFU, ZNF268 / Fold change vs veh, ZNF268 / Fold change vs veh, ZNF507 / RFU, DGCR2 / Fold change vs veh, DGCR2 / RFU, WDSUB1 / Fold change vs veh, WDSUB1 / Fold change vs veh, HSP90B1 /// MIR3652 / RFU, ADSS / Fold change vs veh, ADSS / RFU, GK / Fold change vs veh, GK / RFU, ZNF148 / Fold change vs veh, ZNF148 / RFU, TAF9 / Fold change vs veh, TAF9 / RFU, SLC1A5 / Fold change vs veh, SLC1A5 / RFU, SLMO2 / Fold change vs veh, SLMO2 / RFU, ABCC4 / Fold change vs veh, ABCC4 / RFU, LOC101060439 /// RAP1B / Fold change vs veh, LOC101060439 /// RAP1B / RFU, RFX7 / Fold change vs veh, RFX7 / RFU, GTPBP10 / Fold change vs veh, GTPBP10 / RFU, CNEP1R1 / Fold change vs veh, CNEP1R1 / RFU, BIVM-ERCC5 /// ERCC5 / Fold change vs veh, BIVM-ERCC5 /// ERCC5 / RFU, ILF3 / Fold change vs veh, ILF3 / RFU 11762660_at / Fold change /veh 11762660_at / RFU VCAN (11757783_s_at) / Fold change /veh VCAN (11757783_s_at) / RFU DDX43 (11728927_at) / Fold change /veh DDX43 (11728927_at) / RFU KRT8 (11758188_x_at) / Fold change /veh KRT8 (11758188_x_at) / RFU NKD1 (11759106_at) / Fold change /veh NKD1 (11759106_at) / RFU SRD5A1 (11742802_a_at) / Fold change /veh SRD5A1 (11742802_a_at) / RFU TPSAB1 /// TPSB2 (11721975_s_at) / Fold change /veh TPSAB1 /// TPSB2 (11721975_s_at) / RFU GSTM3 (11746129_a_at) / Fold change /veh GSTM3 (11746129_a_at) / RFU IL23R (11737362_x_at) / Fold change /veh IL23R (11737362_x_at) / RFU TMEM51 (11727254_a_at) / Fold change /veh TMEM51 (11727254_a_at) / RFU PIWIL2 (11732686_x_at) / Fold change /veh PIWIL2 (11732686_x_at) / RFU ORM1 (11744905_x_at) / Fold change /veh ORM1 (11744905_x_at) / RFU CCDC152 (11743942_at) / Fold change /veh CCDC152 (11743942_at) / RFU ECM1 (11717891_a_at) / Fold change /veh ECM1 (11717891_a_at) / RFU IL23R (11748794_a_at) / Fold change /veh IL23R (11748794_a_at) / RFU TNFAIP8L3 (11732012_x_at) / Fold change /veh TNFAIP8L3 (11732012_x_at) / RFU MBOAT4 (11741988_at) / Fold change /veh MBOAT4 (11741988_at) / RFU 11764193_at / Fold change /veh 11764193_at / RFU TMEM53 (11763286_at) / Fold change /veh TMEM53 (11763286_at) / RFU MAGEB2 (11727129_at) / Fold change /veh MAGEB2 (11727129_at) / RFU TMEM200A (11744735_a_at) / Fold change /veh TMEM200A (11744735_a_at) / RFU CCDC152 (11751479_a_at) / Fold change /veh CCDC152 (11751479_a_at) / RFU FAM211A (11726209_a_at) / Fold change /veh FAM211A (11726209_a_at) / RFU RGS16 (11746705_a_at) / Fold change /veh RGS16 (11746705_a_at) / RFU VCAN (11755009_s_at) / Fold change /veh VCAN (11755009_s_at) / RFU RHOB (11743442_s_at) / Fold change /veh RHOB (11743442_s_at) / RFU RGS16 (11720943_a_at) / Fold change /veh RGS16 (11720943_a_at) / RFU RGS16 (11720944_at) / Fold change /veh RGS16 (11720944_at) / RFU, VPS4B / Fold change vs veh, VPS4B / RFU, CREB1 / Fold change vs veh, CREB1 / RFU, DNAJC13 / Fold change vs veh, DNAJC13 / RFU, GNAQ / Fold change vs veh, GNAQ / RFU, CDK5R1 / Fold change vs veh, CDK5R1 / RFU, ZRANB3 / Fold change vs veh, ZRANB3 / RFU, CUL4A / Fold change vs veh, CUL4A / RFU, CCNY / Fold change vs veh, CCNY / RFU, UFL1 / Fold change vs veh, UFL1 / RFU, COG3 / Fold change vs veh, COG3 / RFU, DIAPH2 / Fold change vs veh, DIAPH2 / RFU, SKA2 / Fold change vs veh, SKA2 / RFU, AFF3 / Fold change vs veh, AFF3 / RFU, LMF1 / Fold change vs veh, LMF1 / RFU, IPO11 / Fold change vs veh, IPO11 / RFU, DFFB / Fold change vs veh, DFFB / RFU, FOXP1 / Fold change vs veh, FOXP1 / RFU, CARD8 / Fold change vs veh, CARD8 / RFU, STRN3 / Fold change vs veh, STRN3 / RFU, ADK / Fold change vs veh, ADK / RFU, RASSF2 / Fold change vs veh, RASSF2 / RFU, WIPF1 / Fold change vs veh, WIPF1 / RFU, LARP1B / Fold change vs veh, LARP1B / RFU, RASA1 / Fold change vs veh, RASA1 / RFU, RB1 / Fold change vs veh, RB1 / RFU, PPFIA1 / Fold change vs veh, PPFIA1 / RFU, MAT2A / Fold change vs veh, MAT2A / RFU, CCT5 / Fold change vs veh, CCT5 / RFU, WDR92 / Fold change vs veh, WDR92 / RFU, CUX1 / Fold change vs veh, CUX1 / RFU, TTC7A / Fold change vs veh, TTC7A / RFU, TMEM135 / Fold change vs veh, TMEM135 / RFU, DEPTOR / Fold change vs veh, DEPTOR / RFU, CPM / Fold change vs veh, CPM / RFU, DNAJB6 / Fold change vs veh, DNAJB6 / RFU, CACNA2D3 / Fold change vs veh, CACNA2D3 / RFU, DTX4 / Fold change vs veh, DTX4 / RFU, TFCP2 / Fold change vs veh, TFCP2 / RFU, GMCL1 /// GMCL1P1 / Fold change vs veh, GMCL1 /// GMCL1P1 / RFU, AEBP2 / Fold change vs veh, AEBP2 / RFU, SNHG1 /// SNORD22 /// SNORD25 /// SNORD26 /// SNORD27 /// SNORD28 /// SNORD29 /// SNORD31 / Fold change vs veh, SNHG1 /// SNORD22 /// SNORD25 /// SNORD26 /// SNORD27 /// SNORD28 /// SNORD29 /// SNORD31 / Fold change (Aza/veh), C12orf56 (ProbeSet 11735607_a_at) / Fold change (ACY-1035/veh), C12orf56 (ProbeSet 11735607_a_at) / Fold change (Aza/veh), FGFR1OP (ProbeSet 11751329_s_at) / Fold change (ACY-1035/veh), FGFR1OP (ProbeSet 11751329_s_at) / Fold change (Aza/veh), VPS36 (ProbeSet 11739960_a_at) / Fold change (ACY-1035/veh), VPS36 (ProbeSet 11739960_a_at) / RFU SYPL1 (11715823_x_at) / Fold change /veh SYPL1 (11715823_x_at) / RFU IGFBP7 (11715501_s_at) / Fold change /veh IGFBP7 (11715501_s_at) / RFU REEP3 (11722064_at) / Fold change /veh REEP3 (11722064_at) / RFU IGLL1 (11728026_x_at) / Fold change /veh IGLL1 (11728026_x_at): dose or concentration left out as unconfirmed
# Conditions: MV-4-11 cells, 48 hours
smiles,measurement,value
Nc1ncn([C@@H]2O[C@H](CO)[C@@H](O)[C@H]2O)c(=O)n1 [azacitidine],RFU CLDN22 /// WWC2 (11732394_at),8.78 RFU
